Consider 14 molecules from patent US20130266605A1, “PEPTIDE INHIBITORS OF CD40L SIGNALING AND USES THEREFOR” (PHYLOGICA LIMITED, priority 2010, published 2013).

Like-named read-outs stand apart in the source and are kept apart here. Positions of bridges follow the written chain, without caps; N, C: chain ends. Non-standard residues stand in square brackets, D forms with d. Residues, ends and D or L forms follow the SMILES beside them. Chains are numbered I, II in the order given. No end group written: not given here. AEEA = NCCOCCOCC(=O)O

For one experiment, the target named is T1, CD40L-CD40 interaction (Homo sapiens, UniProt P29965).
T1 sequence (P29965 113-261 limits assumed): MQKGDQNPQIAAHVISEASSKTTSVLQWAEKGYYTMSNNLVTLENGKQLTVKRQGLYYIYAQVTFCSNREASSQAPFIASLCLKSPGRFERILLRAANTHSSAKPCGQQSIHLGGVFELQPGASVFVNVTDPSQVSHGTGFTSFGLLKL
As to the kind of experiment: Chemiluminescent proximity assay (Alphascreen). The experiment is classed as binding. The conditions noted are these: for inhibition of the interaction between CD40L and CD40: in words, Alphascreen proximity assay. On the procedure: In one example, the Alphascreen assay (PerkinElmer) was employed according to the manufacturer's instructions.
Homodimers and heterodimers were also assayed by chemiluminescent proximity assay for their ability to inhibit CD40L-CD40 interaction.
In general terms: Bead proximity is the source of the signal in Alpha formats.

Experiment [1] has as its target CD40L-induced CD86 expression on primary B-cells (UniProt P29965). Kind of experiment: Inhibition of CD40L-induced CD86 expression on primary B-cells (FACS). As to conditions: for inhibition of CD40L-induced CD86 expression on primary B-cells: in words.
Procedure: In one example, the ability of a peptide, analog or derivative of the invention to inhibit or reduce or delay expression of CD86 on primary B-cells was determined in the presence and absence of the peptides, analogs and derivatives of the invention. In particular, CD86 expression was determined by FACS.
As a control in these assays, LPS-induced expression of CD86 mediated by the Toll-like receptors TLR 2/4, and TNFα-induced cytoxicity, were also assayed to exclude effects mediated by ligands other than CD40L.
Another experiment has as its target T2, CD40 ligand (UniProt P29965 108-261, limits assumed).
T2 construct: Used immobilised, soluble, or biotinylated on streptavidin beads; also called CD154; soluble CD40L
T2 sequence (looked up): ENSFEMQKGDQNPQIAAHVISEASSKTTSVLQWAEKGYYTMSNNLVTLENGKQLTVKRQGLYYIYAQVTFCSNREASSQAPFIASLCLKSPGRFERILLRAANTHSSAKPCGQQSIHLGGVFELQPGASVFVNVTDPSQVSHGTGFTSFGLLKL
As to the kind of experiment: Alphascreen, unmodified peptide, inhibition of CD40L/CD40-Fc.

Where [2] appears, read: PEGylated chiral (retro-inverted) analog, read-out: EC50(PEGylated) CD40L/CD40-Fc/BAF617.

Sequence of CD40L-induced CD86 expression on primary B-cells (P29965 whole entry): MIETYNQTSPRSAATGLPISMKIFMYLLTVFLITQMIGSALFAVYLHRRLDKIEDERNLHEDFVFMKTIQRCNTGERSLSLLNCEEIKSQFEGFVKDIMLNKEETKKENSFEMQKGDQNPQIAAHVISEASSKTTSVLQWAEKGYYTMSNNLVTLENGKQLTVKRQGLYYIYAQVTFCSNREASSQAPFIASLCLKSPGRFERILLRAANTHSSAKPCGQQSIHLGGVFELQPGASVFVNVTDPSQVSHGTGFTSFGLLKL
Sequence of CD40L-induced CD86 expression on primary B-cells (P25942 21-277 partner): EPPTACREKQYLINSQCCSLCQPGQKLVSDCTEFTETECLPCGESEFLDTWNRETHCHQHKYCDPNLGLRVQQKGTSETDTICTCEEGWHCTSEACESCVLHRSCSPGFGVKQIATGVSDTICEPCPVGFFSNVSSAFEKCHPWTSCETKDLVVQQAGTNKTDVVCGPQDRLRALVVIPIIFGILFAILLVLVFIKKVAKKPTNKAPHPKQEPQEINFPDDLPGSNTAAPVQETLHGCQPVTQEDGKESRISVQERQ

Regarding “RVWNSFWLHIGGRQVGSPVFLSYFRNRVWRP [CD40L M1_50rd]”, on CD40L-CD40 interaction (setting [2]), the EC50 came to 0.568 µM.

For “VHSYYVWILQFYYKFRSYRWHYQIS [CD40L M1_82rd]”, the EC50 at CD40L-CD40 interaction (setting [2]) is 0.01 µM; in experiment [1] (read-out: EC50 PEGylated peptide, PEGylated monomeric peptide), 0.47 µM.

For “I: H-C[AEEA]LLLFFFSPPFSIFSFSLTTLS / II: H-C[AEEA]HPFSIKNVFSIWNFFSVY (disulfide I:1-II:1) [Cys_M1_6S-Cys_M1_189S heterodimer]”, the “inhibition of the interaction between CD40L and CD40” value on CD40L-CD40 interaction (listed as 6-189 dimer) is “enhanced inhibition”; on CD40L-CD40 interaction (listed as 6-189 high purity dimer), “inhibition”. Also, the “inhibition of CD40L-induced CD86 expression on primary B-cells” value (“inhibition … on primary B-cells” below) in experiment [1] is “enhanced inhibition”.

As to `CC[C@H](C)[C@H](NC(=O)[C@H](CO)NC(=O)[C@H](Cc1c[nH]c2ccccc12)NC(=O)[C@H](CCC(N)=O)NC(=O)[C@@H](NC(=O)[C@@H]1CCCN1C(=O)[C@H](Cc1ccccc1)NC(=O)[C@H](Cc1ccccc1)NC(=O)[C@H](Cc1c[nH]c2ccccc12)NC(=O)CNC(=O)[C@H](Cc1ccc(O)cc1)NC(=O)[C@H](CCCCN)NC(=O)[C@H](CC(C)C)NC(=O)[C@@H](NC(=O)[C@H](Cc1c[nH]cn1)NC(=O)[C@H](CO)NC(=O)[C@H](CCCNC(=N)N)NC(=O)[C@H](Cc1ccc(O)cc1)NC(=O)[C@@H]1CCCN1C(=O)[C@@H](NC(=O)[C@H](Cc1ccccc1)NC(=O)[C@@H]1CCCN1C(=O)[C@@H](N)CC(C)C)C(C)C)C(C)C)C(C)C)C(=O)N[C@@H](Cc1ccccc1)C(=O)N[C@@H](C)C(=O)N[C@H](C(=O)N[C@@H](CC(C)C)C(=O)N1CCC[C@H]1C(=O)N[C@@H](Cc1ccccc1)C(=O)N[C@@H](CCC(N)=O)C(=O)N[C@@H](Cc1ccc(O)cc1)C(=O)N[C@@H](CC(C)C)C(=O)N[C@@H](Cc1c[nH]cn1)C(=O)N[C@@H](CCCNC(=N)N)C(=O)N[C@@H](CS)C(=O)N[C@@H](CCCNC(=N)N)C(=O)O)C(C)C` [CD40L M1_18] (H-LPFVPYRSHVLKYGWFFPVQWSIFAVLPFQYLHRCR-OH; N-terminus and C-terminus assumed), the “inhibition … on primary B-cells” value in experiment [1] is recorded as “concentration-dependent inhibition”.

As for `CC[C@@H](C)[C@@H](NC(=O)[C@@H](Cc1ccccc1)NC(=O)[C@@H](C)NC(=O)[C@H](NC(=O)[C@@H](CC(C)C)NC(=O)[C@H]1CCCN1C(=O)[C@@H](Cc1ccccc1)NC(=O)[C@@H](CCC(N)=O)NC(=O)[C@@H](Cc1ccc(O)cc1)NC(=O)[C@@H](CC(C)C)NC(=O)[C@@H](Cc1c[nH]cn1)NC(=O)[C@@H](CCCNC(=N)N)NC(=O)[C@@H](CS)NC(=O)[C@H](N)CCCNC(=N)N)C(C)C)C(=O)N[C@H](CO)C(=O)N[C@H](Cc1c[nH]c2ccccc12)C(=O)N[C@H](CCC(N)=O)C(=O)N[C@@H](C(=O)N1CCC[C@@H]1C(=O)N[C@H](Cc1ccccc1)C(=O)N[C@H](Cc1ccccc1)C(=O)N[C@H](Cc1c[nH]c2ccccc12)C(=O)NCC(=O)N[C@H](Cc1ccc(O)cc1)C(=O)N[C@H](CCCCN)C(=O)N[C@H](CC(C)C)C(=O)N[C@@H](C(=O)N[C@H](Cc1c[nH]cn1)C(=O)N[C@H](CO)C(=O)N[C@H](CCCNC(=N)N)C(=O)N[C@H](Cc1ccc(O)cc1)C(=O)N1CCC[C@@H]1C(=O)N[C@@H](C(=O)N[C@H](Cc1ccccc1)C(=O)N1CCC[C@@H]1C(=O)N[C@H](CC(C)C)C(=O)O)C(C)C)C(C)C)C(C)C` [CD40L M1_18rd] (H-[dR][dC][dR][dH][dL][dY][dQ][dF][dP][dL][dV][dA][dF][dI][dS][dW][dQ][dV][dP][dF][dF][dW]G[dY][dK][dL][dV][dH][dS][dR][dY][dP][dV][dF][dP][dL]-OH; N-terminus and C-terminus assumed), in experiment [1], the “inhibition … on primary B-cells” value is reported as “enhanced inhibition”.

For the molecule `CC[C@H](C)[C@H](NC(=O)[C@H](CO)NC(=O)[C@H](Cc1ccccc1)NC(=O)[C@@H]1CCCN1C(=O)[C@@H]1CCCN1C(=O)[C@H](CO)NC(=O)[C@H](Cc1ccccc1)NC(=O)[C@H](Cc1ccccc1)NC(=O)[C@H](Cc1ccccc1)NC(=O)[C@H](CC(C)C)NC(=O)[C@H](CC(C)C)NC(=O)[C@@H](N)CC(C)C)C(=O)N[C@@H](Cc1ccccc1)C(=O)N[C@@H](CS)C(=O)N[C@@H](Cc1ccccc1)C(=O)N[C@@H](CO)C(=O)N[C@@H](CC(C)C)C(=O)N[C@H](C(=O)N[C@H](C(=O)N[C@@H](CC(C)C)C(=O)N[C@@H](CO)C(=O)O)[C@@H](C)O)[C@@H](C)O` [CD40L M7_189] (H-LLLFFFSPPFSIFCFSLTTLS-OH), the EC50 on CD40L-CD40 interaction (monomeric non-PEGylated (unmodified) base peptide; 50% reduction in control emission at 520-620 nm; read-out: EC50nmodified) CD40L/CD40-Fc/BAF617) was 0.12 µM.

As for `CC[C@H](C)[C@H](NC(=O)[C@H](CS)NC(=O)[C@H](Cc1ccccc1)NC(=O)[C@@H](NC(=O)[C@H](CC(N)=O)NC(=O)[C@H](CCCCN)NC(=O)[C@@H](NC(=O)[C@H](CO)NC(=O)[C@H](Cc1ccccc1)NC(=O)[C@@H]1CCCN1C(=O)[C@@H](N)Cc1c[nH]cn1)[C@@H](C)CC)C(C)C)C(=O)N[C@@H](Cc1c[nH]c2ccccc12)C(=O)N[C@@H](CC(N)=O)C(=O)N[C@@H](Cc1ccccc1)C(=O)N[C@@H](Cc1ccccc1)C(=O)N[C@@H](CO)C(=O)N[C@H](C(=O)N[C@@H](Cc1ccc(O)cc1)C(=O)O)C(C)C` [CD40L M1_6] (H-HPFSIKNVFCIWNFFSVY-OH; N-terminus and C-terminus assumed), on CD40L-CD40 interaction, the “inhibition of the interaction between CD40L and CD40” value is reported as “inhibition”.

For the molecule AQWWHHRFSFLGAIQFFERGAAD [CD40L M1_30rd], the EC50 on CD40L-CD40 interaction (setting [2]) is 0.024 µM.

With YVSFFNWISFVNKISFPH [CD40L M1_6rd], the EC50 at CD40L-CD40 interaction (setting [2]) was 0.02 µM.

On to SKVRMQFDIINFPVNVGFLVFSH [CD40L M1_42rd], for which the EC50 at CD40L-CD40 interaction (setting [2]) worked out at 0.016 µM.

Take FYLYDRRFSSYFRFLFFLNYRPP [CD40L M1_9rd]: the EC50 at CD40L-CD40 interaction (setting [2]) stood at 0.014 µM.

B1: CD40L: CD40 ligand used to induce CD86 expression on primary B-cells (protein)
chain: T2 sequence (looked up)
For B1, the EC50 in experiment [1] (read-out: EC50 value of CD40L induction of CD86 expression, absence of a peptidyl inhibitor) was around 0.009 µM.

For the molecule LLYVKVICFFCMLVQYNNFQTYK (Base peptide) [CD40L M2_159], the EC50 with CD40 ligand stood at 0.12 µM.

HSFVLFGVNVPFNIIDFQMRVKC (Base peptide) [CD40L M1_42] returned an EC50 in the experiment with CD40 ligand of 0.2 µM.
